From patent publication US20100184809A1, “Heterocyclic FXR Binding Compounds” (PHENEX PHARMACEUTICALS AG, priority 2006, published 2010)

Legend:
[1] = Mouse microsomal stability assay; format: in vitro ADME; settings: pH 7.4; mouse liver microsomes, 37° C.
Protocol: In vitro assays were performed to evaluate the metabolic stability of test items in liver microsomes originating from mouse. Preparation of working standards of test items: Working solutions were prepared for each calibration level by appropriate dilution of the corresponding stock solution, depending on each compound's solubility in acetonitrile or acetonitrile/water. Calibration standards were prepared by spiking 196 μl standard matrix with 4 μl of the corresponding working solution. The standard matrix consists of 0.15 mg/ml of microsomal protein in phosphate buffer (100 mM pH 7.4), the final standard solutions contain 2% acetonitrile. The samples and standard solutions were extracted with ethyl acetate, isolation of the compounds was performed by addition of 600 μl ethyl acetate containing the internal standard (0.1 μM) to 200 μl sample and calibration standard. After vigorously shaking (10 minutes) and centrifugation (5000 g) the aqueous phase was separated by freezing in an acetone/dry ice bath and the organic phase is evaporated to dryness using a vacuum centrifuge. Samples were reconstituted in 200 μl acetonitrile/water mix (1:1 v/v) and subsequently subjected to LC-MS/MS. The incubation solution (180 μl) consisted of 90 μl of a microsomal suspension of 0.33 mg/ml of protein in phosphate buffer 100 mM pH 7.4 and 90 μl NADP-regenerating system. The reaction was initiated by the addition of 20 μl of test compound (in 20% acetonitrile) to the preincubated microsomes/buffer mix at 37° C. 200 μl samples were removed from the incubation after 0, 5, 10, and 30 minutes and processed for ethyl acetate extraction as described above. Negative controls using boiled microsomes (boiling water bath, 25 minutes) without regenerating system were run in parallel. The amount of compound in the samples is expressed as percentage of remaining compound compared to time point zero (=100%). These percentages were plotted against the corresponding time points. Intrinsic clearance (CLint) and half-life (t1/2) estimates were determined using the rate of parent disappearance and following formula (1) and (2). (1) CLint=(−k)×V×fu. (2) t1/2=In2/−k. Where CLint=intrinsic clearance [μl/min/mg protein], t1/2=half life [min], k=slope from the linear regression of log [test compound] versus time plot [1/min]. V=6666.7; fu=unbound fraction in the blood. Applying this protocol gave microsomal stabilities for examples and reference compounds as listed below in Table 9: […]

melting point: 96.1 to 97.1 °C
half-life [1]: 38 min
microsomal CLint [1]: 120 µL/min/mg
SMILES: CC(C)c1onc(-c2c(Cl)cccc2Cl)c1COc1ccc(N(C)Cc2ccc(C(=O)O)cc2)c(C(F)(F)F)n1 [Example 28, 4(((6-((3-(2,6-Dichlorophenyl)-5-isopropylisoxazol-4-yl)methoxy)-2-(trifluoromethyl)pyridin-3-yl)(methyl)amino)methyl)benzoic acid]
